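48-hour exposure; five concentrations; linearly interpolated endpoints. TGI: concentration producing complete growth inhibition.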
Experiments:
Experiment in all cases: NCI tumour cell line growth inhibition, 48 h
786-0 renal = tested on: 786-0 renal
ACHN renal = tested on: ACHN renal
EKVX NSCLC = tested on: EKVX NSCLC
MALME-3M melanoma = tested on: MALME-3M melanoma
MDA-MB-435 = tested on: MDA-MB-435
MOLT-4 leukemia = tested on: MOLT-4 leukemia
OVCAR-4 ovarian = tested on: OVCAR-4 ovarian
RPMI-8226 leukemia = tested on: RPMI-8226 leukemia
SK-MEL-2 melanoma = tested on: SK-MEL-2 melanoma
SNB-75 CNS = tested on: SNB-75 CNS

Compound | TGI (786-0 renal) [µM] | TGI (ACHN renal) [µM] | TGI (EKVX NSCLC) [µM] | TGI (MALME-3M melanoma) [µM] | TGI (MDA-MB-435) [µM] | TGI (MOLT-4 leukemia) [µM] | TGI (OVCAR-4 ovarian) [µM] | TGI (RPMI-8226 leukemia) [µM] | TGI (SK-MEL-2 melanoma) [µM] | TGI (SNB-75 CNS) [µM]
CC1OC(n2cnc3c(N)nc(Cl)nc32)C(C)(O)C1O (stereo not given) | > 25 | > 25 | > 25 | > 25 | > 25 | > 25 | > 25 | > 25 | > 25 | 15.2
CCCNC(=O)c1cc(NC(=O)c2cc(NC(=O)CCS(=O)(=O)OC)cn2C)cn1C | > 71.7 | > 100 | > 100 | 24.6 | 68.8 | > 87.8 | > 73.6 | > 100 | 53.8 | 48.4
CC1(C)N=C(N)N=C(N)N1CCCCc1ccccc1 | > 100 | > 100 | > 100 | 83.4 | > 100 | > 91.6 | > 100 | > 93.9 | > 100 | 97.6
COc1cc2c3c4c1OCc1c5c(cc(c1-4)CC3[N+](C)(C)CC2)OCO5 (stereo not given) | > 63.5 | > 100 | > 100 | > 100 | > 100 | > 100 | > 100 | > 100 | > 100 | > 100
CC(C)(C)OC(=O)CC(NC(=O)OC(C)(C)C)C(=O)Oc1ccc([N+](=O)[O-])cc1 (stereo not given) | > 100 | > 100 | > 100 | > 100 | > 100 | > 100 | > 100 | > 100 | > 100 | > 100

From PubChem BioAssay (NCI)
